Source: article PMC8000724, “Trans-Epithelial Transport, Metabolism, and Biological Activity Assessment of the Multi-Target Lupin Peptide [sequence] (P5) and Its Metabolite [sequence] (P5-Met)” (Nutrients, 2021)
No end group written: not given here.

Experiments:
[1] = test system: differentiated Caco-2 cells (AP membrane peptidases); assay: Metabolites of P5 produced by Caco-2 cell peptidases, MS analysis of AP solutions; assay type: in vitro ADME, human; parameters: key to Metabolite of P5 identified in the AP compartment: Mixture / Metabolite of P5 identified in the AP compartment: Alone: x, detected; n.d., not detected; conditions: P5 incubated in mixture with P3 and P7 (500 μM each), Caco-2, end of incubation 120 min
Protocol: (§1) Prior to experiments, the cell monolayer integrity and differentiation were checked by TEER measurement as described in detail above. Peptide trans-epithelial passage was assayed in differentiated Caco-2 cells in transport buffer solution (137 mM NaCl, 5.36 mM KCl, 1.26 mM CaCl2, and 1.1 mM MgCl2, 5.5 mM glucose) according to previously described conditions. In order to reproduce the pH conditions existing in vivo in the small intestinal mucosa, the apical (AP) solutions were maintained at pH 6.0 (buffered with 10 mM morpholinoethane sulfonic acid), and the basolateral (BL)solutions were maintained at pH 7.4 (buffered with 10 mM […]). Prior to transport experiments, cells were washed twice with 500 µL PBS containing Ca^++ and Mg^++. Peptide transportation by mature Caco-2 cells was assayed by loading the AP compartment with P5 alone, in mixture with […] (P3) and […] (P7), and/or P5-met (500 μM) in the AP transport solution (500 µL) and the BL compartment with the BL transport solution (700 µL). The plates were incubated at 37 °C and the BL solutions were collected at different time points (i.e., 15, 30, 60, 90, and 120 min) and replaced with fresh solutions pre-warmed at 37 °C. All BL and AP solutions collected at the end of the transport experiment were stored at −80 °C prior to analysis. Three independent transport experiments were performed, each in duplicate. In order to assess the involvement of transcytotic process in peptides passage, parallel transport experiments were performed in the presence of 500 nM wortmannin in both the AP and BL compartment, over 60 min incubation time.
The medium collected at the end of transport experiments from AP and BL chambers (500 µL and 700 µL, respectively) were freeze-dried and residues were solubilized in HPLC water (100 µL). Samples were desalted with C18 resin ZipTip by using 80% ACN, 0.1% FA as eluent (Millipore Corporation, Bedford, MA, USA). Each sample was lyophilized under speed-vacuum for 5 h at 30°C and re-dissolved in 50 μL (0.1% formic acid), before MS analysis. Purified BL samples were analyzed on a SL IT mass spectrometer interfaced with a HPLC- Chip Cube source (Agilent Technologies, Palo Alto, CA, USA). Data were processed with MSD Trap control 4.2, and Data analysis 4.2 version (Agilent Technologies, Palo Alto, CA, USA). The chromatographic separation was performed using a 1200 HPLC system equipped with a binary pump. […] Specifically, The monitored MRM transitions of P5-met were from the mono-charged precursor ion [M^+H]^+ (m/z 882.43) to product-ions m/z 678.3 and 407.1, respectively. […]

[2] = target: T1, HMGCoAR (catalytic domain) (Homo sapiens, UniProt P04035); assay: HMGCoAR activity assay; assay type: biochemical
T1 construct: finally the HMGCoAR (catalytic domain) (2 µL); purchased Sigma-Aldrich
T1 sequence (P04035 340-888 limits assumed): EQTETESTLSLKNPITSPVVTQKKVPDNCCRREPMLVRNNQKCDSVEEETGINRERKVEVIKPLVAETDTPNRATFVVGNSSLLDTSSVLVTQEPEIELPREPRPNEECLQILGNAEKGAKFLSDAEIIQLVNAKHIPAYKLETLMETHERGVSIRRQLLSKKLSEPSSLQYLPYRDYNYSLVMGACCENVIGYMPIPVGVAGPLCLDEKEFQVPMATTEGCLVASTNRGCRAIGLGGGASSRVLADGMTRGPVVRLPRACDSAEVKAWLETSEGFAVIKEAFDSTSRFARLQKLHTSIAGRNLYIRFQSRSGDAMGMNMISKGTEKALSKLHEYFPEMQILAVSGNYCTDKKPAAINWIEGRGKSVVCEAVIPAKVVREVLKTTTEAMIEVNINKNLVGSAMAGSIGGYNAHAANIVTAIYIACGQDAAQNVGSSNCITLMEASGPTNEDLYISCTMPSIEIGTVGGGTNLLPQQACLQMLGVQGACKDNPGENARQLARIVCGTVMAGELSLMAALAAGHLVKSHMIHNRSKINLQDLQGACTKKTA
Protocol: The experiments were carried out following the manufacturer instructions and optimized protocol. The assay buffer, NADPH, substrate solution, and HMGCoAR were provided in the HMGCoAR Assay Kit (Sigma Aldrich SRL, Milan, Italy). The experiments were carried out following the manufacturer instructions at 37 °C. In particular, each reaction (200 µL) was prepared adding the reagents in the following order: 1× assay buffer, a 10–500 µM doses of P5 and P5-met or vehicle (C), the NADPH (4 µL), the substrate solution (12 µL), and finally the HMGCoAR (catalytic domain) (2 µL). Subsequently, the samples were mixed and the absorbance at 340 nm read by the microplate reader Synergy H1 (Winooski, VT, USA) at time 0 and 10 min. The HMGCoAR-dependent oxidation of NADPH and the inhibition properties of peptides were measured by absorbance reduction, which is directly proportional to enzyme activity.

[3] = test system: differentiated Caco-2 cells; assay: Trans-epithelial transport across differentiated Caco-2 cell monolayer; assay type: in vitro ADME, human
Protocol: Human intestinal Caco-2 cells, obtained from INSERM (Paris, France), where cultured according to a published protocol. For differentiation, they were seeded on polycarbonate filters, 12 mm diameter, 0.4 µm pore diameter (Transwell, Corning Inc., Lowell, MA, US) at a 3.5 × 10^5 cells/cm^2 density in complete medium supplemented with 10% FBS in both AP and BL compartments for 2 d to allow the formation of a confluent cell monolayer. Starting from day three after seeding, cells were transferred to FBS-free medium in both compartments, supplemented with ITS (final concentration 10 mg/L insulin (I), 5.5 mg/L transferrin (T), 6.7 μg/L sodium selenite (S); GIBCO-Invitrogen, San Giuliano Milanese, Italy) only in the basolateral (BL) compartment, and allowed to differentiate for 18–21 days with regular medium changes three times weekly.
The transepithelial electrical resistance (TEER) of differentiated Caco-2 cells was measured at 37 °C using the voltmeter apparatus Millicell (Millipore Co., Billerica, MA, USA), immediately before and at the end of the transport experiments. In addition, at the end of transport experiments, cells were incubated from the AP side with 1 mM phenol-red in PBS containing Ca^++ (0.9 mM) and Mg^++ (0.5 mM) for 1 h at 37 °C, to monitor the paracellular permeability of the cell monolayer. The BL solutions were then collected and NaOH (70 µL, 0.1 N) was added before reading the absorbance at 560 nm by a microplate reader Synergy H1 from Biotek (Winooski, VT, USA). Phenol-red passage was quantified using a standard phenol-red curve. Only filters showing TEER values and phenol red passages similar to untreated control cells were considered for peptide transport analysis.
as §1
The medium collected at the end of transport experiments from AP and BL chambers (500 µL and 700 µL, respectively) were freeze-dried and residues were solubilized in HPLC water (100 µL). Samples were desalted with C18 resin ZipTip by using 80% ACN, 0.1% FA as eluent (Millipore Corporation, Bedford, MA, USA). Each sample was lyophilized under speed-vacuum for 5 h at 30°C and re-dissolved in 50 μL (0.1% formic acid), before MS analysis. Purified BL samples were analyzed on a SL IT mass spectrometer interfaced with a HPLC- Chip Cube source (Agilent Technologies, Palo Alto, CA, USA). […]

ILPKHSDAD [Peptide P5-frag, minor metabolite of P5, loss of the N-terminal leucine]
Metabolite of P5 identified in the AP compartment: Mixture [1]: x

LILPKHSDAD [Peptide P5]
IC50 ([2]; 10-500 µM peptide, 37 °C, NADPH absorbance 340 nm at 0 and 10 min): 147 µM
Effect of the transcytosis inhibitor wortmannin on transport across Caco-2 cells ([3]; 500 nM wortmannin in AP and BL compartments, 60 min, HPLC-Chip MS of BL compartment): significantly impairs the transport
Amount in BL compartment, mixture versus alone ([3]; Caco-2 AP to BL, 2 h, 500 μM): about 3.5 fold
Transport rate across Caco-2 monolayer ([3]; in mixture with other lupin peptides (P3, P7), Caco-2 AP to BL, 500 μM): 8.9 ± 0.4 ng/(mL × min)
Amount in the BL compartment at the end of incubation (2 h) ([3]; tested alone, 500 μM in AP, Caco-2 AP to BL, 2 h, conversion of the μg value): 0.271 nmol
Amount in the BL compartment at the end of incubation (2 h) ([3]; tested alone, 500 μM in AP, Caco-2 AP to BL, AP pH 6.0 / BL pH 7.4, 37 °C, 2 h, HPLC-Chip MS, mean ± SD): 0.3 ± 0.02 µg
Amount in the BL compartment after 60 min ([3]; tested alone, 500 μM in AP, Caco-2 AP to BL, AP pH 6.0 / BL pH 7.4, 37 °C, HPLC-Chip MS, mean ± SD): 0.20 ± 0.02 µg
Transport rate across Caco-2 monolayer ([3]; tested alone, Caco-2 AP to BL, 500 μM): 1.8 ± 0.3 ng/(mL × min)
Amount in the BL compartment at the end of incubation (2 h) ([3]; tested in mixture with P3 and P7, each 500 μM in AP, Caco-2 AP to BL, 2 h, conversion of the μg value): 0.99 nmol
Amount in the BL compartment at the end of incubation (2 h) ([3]; tested in mixture with P3 and P7, each 500 μM in AP, Caco-2 AP to BL, AP pH 6.0 / BL pH 7.4, 37 °C, 2 h, HPLC-Chip MS, mean ± SD): 1.1 ± 0.2 µg

CC[C@H](C)C(=O)O[C@H]1C[C@H](O)C=C2C=C[C@H](C)[C@H](CC[C@@H](O)C[C@@H](O)CC(=O)O)[C@H]21 [pravastatin, reference compound]
Reduction of HMGCoAR enzyme activity ([2]; 1.0 µM, positive control): 82.0%
